Measurements: patent US7400979B2, “Method of identifying inhibitors of Lck” (Abbott Laboratories, priority 2001, dated 2008)

Tests used:
[1] = target: Hck (Homo sapiens, UniProt P08631); assay: ELISA for protein tyrosine kinases adapted to Hck (inhibitor selectivity); assay type: biochemical; conditions: result in words; b177 defines selective as IC50 for Lck at least 10-fold lower than for the related protein
Excerpt: The disclosed protocol was adapted for determining activity with respect to a specific protein tyrosine kinase, e.g. Lck. […] Adaptation of these protocols for determining the activity of a compound against other protein tyrosine kinases, for example Hck, are well within the abilities of those skilled in the art. […] The following procedure was used to assay the inhibitory effect of compounds of this invention on Lck protein tyrosine kinase activity: […]

[2] = target: Lck protein tyrosine kinase (Homo sapiens, UniProt P06239); assay: Lck inhibition assay: ELISA for protein tyrosine kinases; assay type: biochemical; conditions: poly(Glu4Tyr) substrate, 5 μM ATP, 5% DMSO, result in words
Excerpt: The disclosed protocol was adapted for determining activity with respect to a specific protein tyrosine kinase, e.g. Lck. […] Adaptation of these protocols for determining the activity of a compound against other protein tyrosine kinases, for example Hck, are well within the abilities of those skilled in the art. […] The following procedure was used to assay the inhibitory effect of compounds of this invention on Lck protein tyrosine kinase activity:
Store on ice. […] Store on ice.

Chain of Lck protein tyrosine kinase (P06239 whole entry): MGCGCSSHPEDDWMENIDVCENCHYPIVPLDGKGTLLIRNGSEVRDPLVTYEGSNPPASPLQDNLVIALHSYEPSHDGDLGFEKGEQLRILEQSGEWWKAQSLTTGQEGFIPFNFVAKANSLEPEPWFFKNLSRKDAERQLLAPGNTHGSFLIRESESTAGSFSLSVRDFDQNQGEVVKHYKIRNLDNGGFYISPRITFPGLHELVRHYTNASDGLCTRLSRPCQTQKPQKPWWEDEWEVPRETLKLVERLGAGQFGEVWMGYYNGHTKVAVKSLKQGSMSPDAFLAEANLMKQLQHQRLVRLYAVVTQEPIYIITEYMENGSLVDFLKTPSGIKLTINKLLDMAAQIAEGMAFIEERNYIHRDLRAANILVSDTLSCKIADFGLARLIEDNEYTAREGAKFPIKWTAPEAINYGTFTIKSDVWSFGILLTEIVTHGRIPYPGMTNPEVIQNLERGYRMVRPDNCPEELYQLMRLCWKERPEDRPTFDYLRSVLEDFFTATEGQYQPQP
Chain of Hck (P08631 whole entry): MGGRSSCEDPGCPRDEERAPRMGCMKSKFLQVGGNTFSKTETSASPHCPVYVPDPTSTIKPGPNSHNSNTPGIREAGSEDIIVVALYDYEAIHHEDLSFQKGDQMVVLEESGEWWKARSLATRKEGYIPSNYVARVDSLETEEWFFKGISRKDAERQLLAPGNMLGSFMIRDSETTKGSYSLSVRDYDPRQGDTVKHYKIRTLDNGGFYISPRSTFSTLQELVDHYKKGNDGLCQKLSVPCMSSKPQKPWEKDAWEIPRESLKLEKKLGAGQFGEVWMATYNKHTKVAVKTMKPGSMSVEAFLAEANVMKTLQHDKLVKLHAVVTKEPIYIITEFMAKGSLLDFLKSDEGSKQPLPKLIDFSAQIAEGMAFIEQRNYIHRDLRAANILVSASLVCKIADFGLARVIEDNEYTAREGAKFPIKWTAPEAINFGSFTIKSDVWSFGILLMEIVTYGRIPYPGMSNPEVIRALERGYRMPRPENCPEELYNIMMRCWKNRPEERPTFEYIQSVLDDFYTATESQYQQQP

SMILES | selectivity for Lck over Hck [1] | Lck inhibition (in vitro potency) [2]
CNCCCN(C)C/C=C/c1[nH]c(=O)c2c(ccc3nc(Nc4c(Cl)cccc4Cl)n(C)c32)c1C [inhibitor 13, 2-(2,6-dichloroanilino)-1,6-dimethyl-7-((E)-3-{methyl[3-(methylamino)propyl]amino}-1-propenyl)-8,9-dihydro-1H-imidazo[4,5-h]isoquinolin-9-one] | inhibit Lck selectively over Hck | potent inhibitor of Lck
CN1CCN([C@H]2CC[C@H](n3nc(-c4ccc(Nc5n[nH]c6ccccc56)cc4)c4c(N)ncnc43)CC2)CC1 [inhibitor 15, trans-3-[4-(1H-3-indazolylamino)phenyl]-1-[4-(4-methylpiperazino)cyclohexyl]-1H-pyrazolo[3,4-d]pyrimidin-4-amine] |  | potent inhibitor of human Lck
